Here are results for 3 compounds from article PMC8851771, “Molecular action of larvicidal flavonoids on ecdysteroidogenic glutathione S-transferase Noppera-bo in Aedes aegypti” (BMC Biology, 2022).

Where two headings read alike, the source gives them in different places.

One data set addresses AeNobo-WT (Aedes aegypti, UniProt A0A1S4FIB3). Description: GST activity inhibition assay with 3,4-DNADCF, wild-type AeNobo. The class given is biochemical. The procedure: We prepared a purified AeNobo recombinant protein (220-aa length) using an Escherichia coli protein expression system. The GST enzymatic activity was examined using the fluorogenic artificial substrate 3,4-dinitrobenzamidedichlorofluorescein (3,4-DNADCF).
The IC50 value was measured using an in vitro assay system as described previously. […] Five microliters of each diluted compound solution was mixed with 245 μL of solution A (100 mM sodium phosphate buffer at pH 6.5, 0.01% Tween 20, 2 mM GSH, and 50 ng/mL AeNobo-WT, 100 ng/mL AeNobo-E113A, and 200 ng/mL F39L). One hundred microliters of the mixture was dispensed into wells of a 96-well plate. One hundred microliters of solution B (0.2 μM 3,4-DNADCF and 100 mM sodium phosphate buffer at pH 6.5) was added to each well. In summary, the final reaction system comprised 100 mM sodium phosphate buffer (pH 6.5), 1 mM GSH, 0.005% Tween 20, 0.1 μM 3,4-DNACDF, and 25 ng/mL AeNobo, 50 ng/mL AeNobo-E113A, or 100 ng/mL AeNobo-F39L protein. The fluorescence intensity derived from 4-GS-3-NADCF, a product of this reaction, was measured for 3 min. IC50 values were estimated as described previously. The enzymatic assays under each condition were performed at least twice independently.
To identify inhibitors of AeNobo enzymatic activity, a high-throughput screening was performed as described in a previous study. Briefly, a core library of 9600 compounds obtained from the Drug Discovery Initiative, The University of Tokyo, was utilized for screening. In this screen, the enzymatic activity of AeNobo was detected using 3,4-DNADCF [29]. […] Then, 1 μL of solution B (4 μM 3,4-DNADCF, 100 mM sodium phosphate at pH 6.5, and 0.005% Tween 20) was added into each well. In summary, the reaction system comprised 5.6 ng/mL AeNobo protein, 2 μM 3,4-DNADCF, 1 mM GSH, 0.005% Tween 20, and 100 mM sodium phosphate at pH 6.5, together with each compound at 10 μM. The plate was incubated for 30 min at 25–27 °C and 2 μL of 10 mM N-ethylmaleimide was added into each well to stop the reaction. […] For the second screen, we assayed the IC50 values of the compounds against the enzymatic activity of AeNobo.

The target in data set [1] is T1, DmNobo (Drosophila melanogaster, UniProt Q7JYX0).
T1 construct: made in house; host or cells: E. coli
T1 sequence (Q7JYX0 whole entry): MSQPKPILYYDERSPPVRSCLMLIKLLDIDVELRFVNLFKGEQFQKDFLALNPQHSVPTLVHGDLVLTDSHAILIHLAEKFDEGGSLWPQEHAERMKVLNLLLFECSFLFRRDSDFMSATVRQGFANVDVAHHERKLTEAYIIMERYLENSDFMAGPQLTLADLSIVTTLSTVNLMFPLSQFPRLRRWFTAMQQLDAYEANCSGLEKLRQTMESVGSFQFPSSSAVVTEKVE
Description: GST activity inhibition assay with 3,4-DNADCF, DmNobo. The class given is biochemical.

Data set [2] has as its target T1, DmNobo. The conditions noted are these: read-out: IC50 against DmNobo; cited from earlier work.
Data set [3] concerns DmNobo Asp-113 substituted with Ala. Set-up: method as in PMID 32241910. The conditions noted are these: cited from earlier work.
The target in another data set is AeNobo-E113A (Aedes aegypti, UniProt A0A1S4FIB3, E164K). Nature of the data set: GST activity inhibition assay with 3,4-DNADCF, AeNobo-E113A. The class given is biochemical. Particulars: at a concentration of 25 μM. An excerpt:
The importance of the Glu-113–flavonoid hydrogen bond for flavonoid binding was biochemically examined with a recombinant mutated AeNobo protein carrying an E113A aa substitution (AeNobo-E113A).
(§1) pCold III plasmids expressing the AeNobo-E113A and AeNobo-F39L were constructed using KOD-Plus-Mutagenesis Kit (Toyobo). The following primers were used: E113A-F (5′-[…]-3′) and E113A-R (5′-[…]-3′) for AeNobo-E113A and F39L-F (5′-[…]-3′) and F39L-R (5′-[…]-3′) for AeNobo-F39L. We conducted inverse PCR using KOD-plus polymerase, pColdIII/AeNobo-WT plasmid, and the primer pair described above under the following conditions: pre-denaturation at 94 °C for 2 min, denaturation at 98 °C for 10 s, and extension at 68 °C for 6 min for 6 cycles. The PCR products were treated with DpnI at 37 °C for 1 h, followed by self-ligation using T4 polynucleotide kinase and Ligation High. After the transformation of DH5α bacteria using the ligation products, we extracted plasmid DNA from the colonies and verified their sequences to confirm whether the appropriate point mutations were introduced.
The IC50 value was measured using an in vitro assay system as described previously. A dilution series of compounds, ranging from 2.5 mM to 0.127 μM for DMG and from 2.5 mM to 4.9 μM for other compounds, was prepared by 2-fold serial dilution in DMSO. Five microliters of each diluted compound solution was mixed with 245 μL of solution A (100 mM sodium phosphate buffer at pH 6.5, 0.01% Tween 20, 2 mM GSH, and 50 ng/mL AeNobo-WT, 100 ng/mL AeNobo-E113A, and 200 ng/mL F39L). One hundred microliters of the mixture was dispensed into wells of a 96-well plate. One hundred microliters of solution B (0.2 μM 3,4-DNADCF and 100 mM sodium phosphate buffer at pH 6.5) was added to each well. In summary, the final reaction system comprised 100 mM sodium phosphate buffer (pH 6.5), 1 mM GSH, 0.005% Tween 20, 0.1 μM 3,4-DNACDF, and 25 ng/mL AeNobo, 50 ng/mL AeNobo-E113A, or 100 ng/mL AeNobo-F39L protein. The fluorescence intensity derived from 4-GS-3-NADCF, a product of this reaction, was measured for 3 min. IC50 values were estimated as described previously. The enzymatic assays under each condition were performed at least twice independently.

In the next data set the target is AeNobo-F39L (Aedes aegypti, UniProt A0A1S4FIB3, F90L). Description: GST activity inhibition assay with 3,4-DNADCF, AeNobo-F39L. In kind it is biochemical. Here is the method:
as §1
The IC50 value was measured using an in vitro assay system as described previously. A dilution series of compounds, ranging from 2.5 mM to 0.127 μM for DMG and from 2.5 mM to 4.9 μM for other compounds, was prepared by 2-fold serial dilution in DMSO. […] The fluorescence intensity derived from 4-GS-3-NADCF, a product of this reaction, was measured for 3 min. […]

In data set [4] the test system is Ae. aegypti 1st instar larvae. Nature of the data set: Aedes aegypti larvicidal assay. In kind it is in vivo. Particulars: above 10 ppm, 24-h treatment. Here is the method:
To test this, we conducted larvicidal assays using Ae. aegypti larvae.
The dried eggs on filter papers were soaked in distilled water. Three hours after soaking, the first instar larvae were transferred to 30 mL of fresh distilled water in a 50-mL plastic cup with a lid containing air holes. In the rearing water, 2 mg of the powdered goldfish food (Hikari Medium Grain, Kyorin Co., Ltd.) was added to each cup as food for Ae. aegypti larvae. In each cup, we poured the 30 mL rearing water containing 1 ppm, 10 ppm, or 100 ppm of the compounds with 0.1% ethanol at the final concentration, followed by placing 20 larvae. Twenty-four hours after the addition of flavonoids, the number of living and dead larvae was recorded. Larvacidal assays under each condition were performed 5 times independently. The larval instars 24 h after the addition of DMG were identified by measuring the transverse diameter of the Ae. aegypti larval head. Photographs of whole bodies of larvae were taken and the head diameter was then measured using ImageJ software.

Data set [5] concerns D. melanogaster 1st instar larvae. Nature of the data set: Drosophila melanogaster survival assay. In kind it is in vivo. Particulars: 10 ppm in food. Here is the method: We also conducted larvicidal assays using D. melanogaster. When we placed D. melanogaster 1st instar larvae in food containing 10 ppm DMG, pupariation rate and pupation timing were not affected when compared with a control group (Additional file 1: Figure S10). […] A […] DMG stock solution was prepared in 100% DMSO. Ten microliters of the DMG stock solution or 10 μL of DMSO alone was mixed with 10 g of standard cornmeal medium and 1 mL of autoclaved water. The volume of the mixed food was approximately 10 mL, and therefore, the food contained 0.1% DMSO with or without 10 ppm DMG. Two grams of the food were dispensed into each 12-mL plastic vial (Sarstedt). D. melanogaster wild-type Canton-S were given the opportunity to lay eggs on a grape juice agar with yeast paste for 12 h. After egg collection, the embryos were reared at 25 °C for 24 h, and then 20 1st instar larvae were transferred to each vial and reared at 25°C. The numbers of pupae were counted daily, and the timing of pupation was recorded.

Another data set concerns estrogen receptors (ERs). The conditions noted are these: does not promote ER binding activity to estrogen response elements; cited from earlier work.
The target of data set [6] is Aedes aegypti Noppera-bo (AeNobo), wild type, 220-aa protein (Aedes aegypti). Nature of the data set: SEC; gel filtration of purified AeNobo on HiLoad Superdex200 26/60; 150 mM NaCl, 25 mM Tris-HCl pH 8.0, 5 mM DTT; 1 mL/min; compared with marker proteins. In general terms: In gel filtration, larger molecules generally elute earlier.

AeNobo-WT, sequence (A0A1S4FIB3 entry or part of it): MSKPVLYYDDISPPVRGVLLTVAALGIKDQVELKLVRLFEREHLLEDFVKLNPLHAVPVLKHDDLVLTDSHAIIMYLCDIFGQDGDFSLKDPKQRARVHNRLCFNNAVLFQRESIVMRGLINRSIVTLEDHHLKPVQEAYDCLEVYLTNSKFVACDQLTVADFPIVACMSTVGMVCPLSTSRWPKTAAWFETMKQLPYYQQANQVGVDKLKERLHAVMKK
AeNobo-E113A, sequence (A0A1S4FIB3 entry or part of it E164K): as the sequence (A0A1S4FIB3 entry or part of it) above, with E113K counted along it
AeNobo-F39L, sequence (A0A1S4FIB3 entry or part of it F90L): as the sequence (A0A1S4FIB3 entry or part of it) above, with F39L counted along it

For orientation: IC50 means the concentration that inhibits the measured activity by half. On to `C[C@]12CC[C@@H]3c4ccc(O)cc4CC[C@H]3[C@@H]1CC[C@@H]2O` [17β-estradiol], for which, at AeNobo-WT (higher against AeNobo), the “IC50 against AeNobo relative to that against DmNobo” value is reported as “approximately 10 fold”. The IC50 was 21.3 µM on AeNobo-WT (text and figures, 3,4-DNADCF, read-out: IC50 against AeNobo (WT)); 2330 ± 80 nM against DmNobo [1]; 1200 to 2300 nM at DmNobo [2]. For the same compound, in data set [3], the “Inhibition of enzymatic activity of DmNobo with Asp-113 substituted with Ala” value was “does not inhibit”.
With `O=c1c(-c2ccc(O)cc2)coc2cc(O)c(O)cc12` [Desmethylglycitein, 4′,6,7-trihydroxyisoflavone], the IC50 on AeNobo-WT (read-out: IC50 (μM) (mean ± s.d.)) amounted to 0.293 ± 0.012 µM; on AeNobo-F39L, 1160 nM. In addition, the “Inhibition of enzymatic activity of AeNobo-E113A” value on AeNobo-E113A is on record as “not inhibited”. The Lethality result in data set [4] was “high lethality”. The Development to adults entry in data set [5] is recorded as “most larvae became adults”. In data set [5] (1st instar larvae), the “Pupariation rate and pupation timing compared with control” value was “not affected”. For the same compound, in the data set on estrogen receptors (ERs), the Estrogenic activity entry was “does not exhibit estrogenic activity”.
For orientation: stoichiometry N means the number of molecules, sites or subunits per partner or assembly. In data set [6], “Aedes aegypti Noppera-bo (AeNobo), wild type, 220-aa protein (enzyme)” showed a stoichiometry N of 2.
